Like-named read-outs stand apart in the source and are kept apart here.
Experiments:
Assay type in all cases: cell-based
[1] = system: MSSA; experiment: MIC against MSSA strain panel; details: Staphylococcus aureus, the 4th table, read-out: MIC
[2] = system: ATCC 29212 E. faecalis; experiment: MIC against ATCC 29212 E. faecalis; details: Enterococcus faecalis, ATCC29212, ATCC 29212 E. faecalis, read-out: MIC
[3] = system: S. pneumoniae; experiment: MIC against S. pneumoniae strain panel; details: Streptococcus pneumoniae, read-out: MIC
[4] = system: Group A Strep; experiment: MIC against Group A Strep strain panel; details: read-out: MIC
[5] = system: Group B Strep; experiment: MIC against Group B Strep strain panel; details: read-out: MIC
[6] = system: E. coli; experiment: MIC against E. coli strains; details: the 4th table

Measured: MIC

CCC1C(c2ccc(C(F)(F)F)cc2)=C(O)C(=O)N1C1CCC(NC)CC1 (centres unmarked) [Compound 4]
> 64 µg/mL: [6]; Escherichia coli, ATCC25922, ATCC 25922 E. coli, read-out: MIC | [6]; Escherichia coli, AR-451 E. coli, read-out: MIC
0.25 µg/mL: [3]; ATCC49619, ATCC 49619 S. pneumoniae, CA-MHB w/5% LHB, the 4th table | [3]; CT4-9046 S. pneumoniae, the 7th table | [3]; CT5-9124 S. pneumoniae, the 7th table | [4]; 2008-818 Group A Strep, CA-MHB w/5% LHB, the 4th table | [4]; 2008-1732 Group A Strep, CA-MHB w/5% LHB, the 4th table | [5]; 2009-62 Group B Strep, CA-MHB w/5% LHB, the 4th table
1 µg/mL: [1]; VGP16-100 MSSA | [1]; VGP16-101 MSSA | [1]; VGP16-116 MSSA | [1]; VGP16-117 MSSA
2 µg/mL: [2]; the 4th table | [2]; the 6th table
0.5 µg/mL: [3]; ATCC49619, ATCC 49619 S. pneumoniae, the 7th table | [3]; CO314937 S. pneumoniae, CA-MHB w/5% LHB, the 4th table | [3]; CT3-5008 S. pneumoniae, the 7th table | [3]; CT3-5803 S. pneumoniae, the 7th table | [3]; CT3-8501 S. pneumoniae, the 7th table | [3]; CT4-3048 S. pneumoniae, the 7th table | [3]; CT4-9693 S. pneumoniae, the 7th table | [3]; CT5-6541 S. pneumoniae, the 7th table | [3]; CT5-8032 S. pneumoniae, the 7th table | [3]; CT6-0670 S. pneumoniae, the 7th table | [3]; CT6-7691 S. pneumoniae, the 7th table | [3]; CT0200-2241 S. pneumoniae, the 7th table | [3]; CT0200-2730 S. pneumoniae, the 7th table | [3]; MD77773 S. pneumoniae, CA-MHB w/5% LHB, the 4th table | [4]; 2007-11 Group A Strep, the 8th table | [4]; 2007-28 Group A Strep, the 8th table | [4]; 2007-49 Group A Strep, the 8th table | [4]; 2007-73 Group A Strep, the 8th table | [4]; 2007-107 Group A Strep, the 8th table | [4]; 2007-1101 Group A Strep, the 8th table | [4]; 2008-06 Group A Strep, the 8th table | [4]; 2008-45 Group A Strep, the 8th table | [4]; 2008-1565 Group A Strep, the 8th table | [4]; 2008-1692 Group A Strep, the 8th table | [4]; 2009-8 Group A Strep, the 8th table | [4]; 2009-37 Group A Strep, CA-MHB w/5% LHB, the 4th table | [4]; 2009-106 Group A Strep, the 8th table | [4]; 2009-109 Group A Strep, the 8th table | [4]; 2009-114 Group A Strep, the 8th table | [4]; 2009-136 Group A Strep, the 8th table | [5]; 2008-57 Group B Strep, the 9th table | [5]; 2008-70 Group B Strep, the 9th table | [5]; 2008-87 Group B Strep, CA-MHB w/5% LHB, the 4th table | [5]; 2008-115 Group B Strep, the 9th table | [5]; 2009-20 Group B Strep, the 9th table | [5]; 2009-40 Group B Strep, the 9th table | [5]; 2009-43 Group B Strep, the 9th table | [5]; 2009-51 Group B Strep, the 9th table | [5]; 2009-57 Group B Strep, the 9th table | [5]; 2009-59 Group B Strep, the 9th table | [5]; 2009-60 Group B Strep, the 9th table | [5]; 2009-61 Group B Strep, CA-MHB w/5% LHB, the 4th table | [5]; J4182 Group B Strep, the 9th table | [5]; J4183 Group B Strep, the 9th table | [5]; J4185 Group B Strep, the 9th table | [5]; J4186 Group B Strep, the 9th table | [5]; J4222 Group B Strep, the 9th table
>64 µg/mL: [6]; AR-137 E. coli

Source: patent US20250312258A1, “2,3-PYRROLIDINEDIONE CONJUGATES AND METHODS OF USING THEREOF” (North Carolina State University, priority 2022, published 2025)
